Assay results taken from publication PMC9067930 (Science Advances, 2022).
Where two headings read alike, the source gives them in different places. No end group written: not given here.

Key:
[1] = biological target: Nluc-Y1R, wild type (human) (UniProt P25929); assay: FRET or BRET
Y4R [2] = details: cited from earlier work
Y1R = details: cited from earlier work
Y2R [3] = details: cited from earlier work
Y4R [4] = details: cited from earlier work; remark: listed apart in the source
[5] = biological target: Nluc-Y4R, wild type (human) (UniProt P50391); assay: FRET or BRET
Nluc-Y4R Q^5.46A (human) = Nluc-Y4R Q^5.46A (human) (UniProt P50391); assay: FRET or BRET
[6] = biological target: Nluc-Y4R, wild type (human) (UniProt P50391); assay: FRET or BRET; remark: listed apart in the source
Y2R [7] = biological target: T1, Y2R (Homo sapiens, UniProt P49146); type: binding; details: high- and low-affinity state
T1 sequence (P49146 1-381): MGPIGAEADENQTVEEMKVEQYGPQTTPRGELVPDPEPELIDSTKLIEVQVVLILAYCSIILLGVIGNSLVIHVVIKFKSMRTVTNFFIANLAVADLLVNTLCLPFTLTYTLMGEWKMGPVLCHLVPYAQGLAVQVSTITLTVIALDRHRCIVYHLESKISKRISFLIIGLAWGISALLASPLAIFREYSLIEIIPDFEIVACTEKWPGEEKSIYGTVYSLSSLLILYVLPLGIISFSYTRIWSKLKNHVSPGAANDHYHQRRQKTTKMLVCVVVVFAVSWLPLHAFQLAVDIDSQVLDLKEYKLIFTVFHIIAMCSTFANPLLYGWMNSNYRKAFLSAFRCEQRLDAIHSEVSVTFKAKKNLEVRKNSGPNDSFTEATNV

Sequence of Nluc-Y4R, wild type (human) (P50391 whole entry): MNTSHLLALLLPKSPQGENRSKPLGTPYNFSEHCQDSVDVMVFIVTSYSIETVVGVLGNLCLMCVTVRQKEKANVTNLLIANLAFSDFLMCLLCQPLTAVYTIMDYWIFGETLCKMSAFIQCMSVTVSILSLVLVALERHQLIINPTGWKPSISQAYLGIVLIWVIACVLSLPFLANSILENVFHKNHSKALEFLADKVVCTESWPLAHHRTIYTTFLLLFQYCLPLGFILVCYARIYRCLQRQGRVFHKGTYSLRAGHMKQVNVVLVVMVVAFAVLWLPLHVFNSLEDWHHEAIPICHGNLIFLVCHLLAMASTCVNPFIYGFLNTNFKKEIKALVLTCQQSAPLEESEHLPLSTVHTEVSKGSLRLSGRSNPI
Sequence of Nluc-Y4R Q^5.46A (human) (P50391 whole entry): as above
Sequence of Nluc-Y1R, wild type (human) (P25929 whole entry): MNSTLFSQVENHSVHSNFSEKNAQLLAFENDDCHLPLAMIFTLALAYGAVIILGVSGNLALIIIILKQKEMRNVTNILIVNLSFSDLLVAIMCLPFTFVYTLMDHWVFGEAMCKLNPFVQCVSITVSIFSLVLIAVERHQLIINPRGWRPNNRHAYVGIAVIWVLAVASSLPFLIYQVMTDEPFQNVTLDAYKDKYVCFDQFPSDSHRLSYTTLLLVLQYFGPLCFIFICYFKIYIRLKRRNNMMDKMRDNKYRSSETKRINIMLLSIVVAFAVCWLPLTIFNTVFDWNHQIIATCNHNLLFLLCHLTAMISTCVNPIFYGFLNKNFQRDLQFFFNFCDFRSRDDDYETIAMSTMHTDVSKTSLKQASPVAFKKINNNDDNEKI

Molecule: K18(TAMRA)-NPY (peptide)
- KD,2 (low-affinity state) [1]: 126 nM

Molecule: PP(2–36): N-terminally truncated PP (PLEPVYPGDNATPEQMAQYAADLRRYINMLTRPRY; ends and bridges not checked; UniProt P01298 31-65, looked up, fragment)
- functional impairment (Y4R [2]): limited functional impairment

Molecule: PYY: 36-residue C-terminally amidated neuropeptide
- binding (Y1R; Y1R F286A): marked loss

Molecule: NPY(2–36): truncated NPY analog
- reduction of affinity and activity, respectively (Y1R; Y1R): more than 50 fold

Molecule: NPY mutant T32A
- binding affinity (Y2R [3]): loss of binding affinity
- binding affinity (Y4R [4]): loss of binding affinity
- binding affinity (Y1R; Y1R): loss of binding affinity

Molecule: K22(TAMRA),Nle17,30-PP (peptide)
- KD,1 (high-affinity state) [5]: 26 nM
- fold reduction of affinity against wild-type Y4R (Nluc-Y4R Q^5.46A (human)): 100 fold
- KD,1 (high-affinity state) [6]: 18 nM

Molecule: NPY(3–36): N-terminally truncated NPY analog
- affinity (Y2R [3]): subnanomolar affinity
- reduction of affinity and activity, respectively (Y1R; Y1R): more than 50 fold

Molecule: Q34P-substituted analog of NPY
- binding (Y2R [3]): not tolerated
- binding (Y4R [4]): improved binding
- affinity (Y1R; Y1R): wild-type affinity
- binding affinity (Y1R; Y1R, exchange of Q34 by proline): unchanged binding affinity

Molecule: CCN(CC)C(=O)C(c1ccccc1)N1CCN(c2ccc(NC(=O)c3ccccc3-c3cccnc3)cc2F)CC1 (stereo not drawn) [JNJ-31020028]
- affinity (Ki) in both states (Y2R [7]): essentially the same affinity

Molecule: Q34G variant of NPY
- loss of binding affinity compared to NPY (Y1R; Y1R): 15 fold

Molecule: NPY(22–36): N-terminally truncated NPY analog
- affinity (Y2R [3]): subnanomolar affinity

Molecule: NPY(13–36): N-terminally truncated NPY analog
- affinity (Y2R [3]): subnanomolar affinity

Molecule: NPY(18–36): N-terminally truncated NPY analog
- affinity (Y2R [3]): subnanomolar affinity
